Assay results as given in ChEMBL document CHEMBL2424544, “Inhibitors of switch kinase 'spleen tyrosine kinase' in inflammation and immune-mediated disorders: a review” (Eur J Med Chem, 2013).

Biological target: Tyrosine-protein kinase SYK (Homo sapiens, UniProt P43405)
Experiment: Inhibition of spleen tyrosine kinase (unknown origin); call rule not given here

Row | SMILES | IC50 (read-out: IC50) | IC50
1 | CN(C)CCN(C)c1ncc(C(N)=O)c(Nc2cccc(C(F)(F)F)c2)n1 | > 10 µM | –
2 | COc1ccc2c(c1)c(/C=C1\C(=O)Nc3ccc(S(=O)(=O)N(C)C)cc31)cn2C | – | Not Active

The remaining lines, values ahead:

Row | IC50 (read-out: IC50) | IC50 | SMILES
3 | > 10 µM | – | CNc1nc(NCCN)ncc1C(N)=O
4 | > 10 µM | – | CN(C)C(=O)c1cnc(NCCN)nc1Nc1cccc(C(F)(F)F)c1
5 | > 10 µM | – | CNC(=O)c1cnc(NCCN)nc1Nc1cccc(C(F)(F)F)c1
